Where two headings read alike, the source gives them in different places. Where a SMILES comes first, the peptide text is derived from it. [ ]: non-standard residue; d: D form.
How the values were obtained:
A. baumannii [1] = assay: MIC of antibiotic during combined treatment with antimicrobial peptide; type: cell-based, Acinetobacter baumannii; details: A. baumannii
How it was run: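 Antibiotic diluted in MH medium, dispensed per well with peptide; setup repeated with roles reversed; MIC read per combination.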

E. coli = type: cell-based, Escherichia coli; details: E. coli
How it was run: (§1)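 Antibiotic MIC came from antibiotic dilutions added to bacteria (2×10^6 CFU/ml, MH medium) already combined with peptide serially diluted 2:1 from its own MIC. Swapping the roles of the two agents gave the peptide MIC.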

MDREC 1229 = type: cell-based, Escherichia coli
How it was run: as §1

A. baumannii [2] = assay: MIC of antimicrobial peptide during combined treatment with antibiotic; type: cell-based, Acinetobacter baumannii
How it was run: as §1

MDRAB 12035 = assay: as above; type: cell-based, Acinetobacter baumannii
How it was run: as §1

[3] = combined with peptide at 2 μg/ml
[4] = combined with peptide at 4 μg/ml
[5] = combined with peptide at 6 μg/ml
[6] = combined with peptide at 8 μg/ml
[7] = combined with peptide at 16 μg/ml
[8] = combined with peptide at 32 μg/ml
[9] = combined with peptide at 64 μg/ml
[10] = linezolid 64 μg/ml (Conc./MIC 1/8)
[11] = linezolid 512 μg/ml (Conc./MIC 1)
[12] = vancomycin 512 μg/ml (Conc./MIC 1/2)
[13] = vancomycin 1024 μg/ml (Conc./MIC 1)
[14] = erythromycin 4 μg/ml (Conc./MIC 1/8)
[15] = erythromycin 8 μg/ml (Conc./MIC 1/4)
[16] = erythromycin 16 μg/ml (Conc./MIC 1/2)
[17] = erythromycin 32 μg/ml (Conc./MIC 1)

CC[C@H](C)[C@H](NC(=O)[C@H](CCCCN)NC(=O)[C@H](Cc1c[nH]c2ccccc12)NC(=O)[C@@H](N)CCCNC(=N)N)C(=O)N[C@@H](Cc1ccccc1)C(=O)N[C@@H](CCCCN)C(=O)N[C@@H](CCCCN)C(=O)N[C@H](C(=O)N[C@H](CCCCN)C(=O)N[C@@H](CCCCN)C(=O)N[C@@H](CC(C)C)C(=O)N[C@@H](CC(C)C)C(=O)N[C@@H](Cc1c[nH]cn1)C(=O)N[C@@H](CCC(=O)O)C(=O)N[C@@H](C)C(=O)N[C@@H](CCCCN)C(=O)N[C@@H](CCCCN)C(=O)N[C@@H](Cc1c[nH]c2ccccc12)C(N)=O)[C@@H](C)CC [PapMA-20, RWK IFK KIk KLL HEA KKW-NH2] (H-RWKIFKKI[dK]KLLHEAKKW-NH2; N-terminus assumed)
Antibiotic MIC, Erythromycin (A. baumannii [1]; [3]): 16 µg/mL | Antibiotic MIC, Linezolid (A. baumannii [1]; [3]): 64 µg/mL | Antibiotic MIC, Vancomycin (A. baumannii [1]; [3]): >128 µg/mL | Antibiotic MIC, Erythromycin (A. baumannii [1]; [4]): 2 µg/mL | Antibiotic MIC, Linezolid (A. baumannii [1]; [4]): 16 µg/mL | Antibiotic MIC, Vancomycin (A. baumannii [1]; [4]): 32 µg/mL | Antibiotic MIC, Erythromycin (A. baumannii [1]; [5]): 1 µg/mL | Antibiotic MIC, Linezolid (A. baumannii [1]; [5]): 8 µg/mL | Antibiotic MIC, Vancomycin (A. baumannii [1]; [5]): 8 µg/mL | Antibiotic MIC, Erythromycin (A. baumannii [1]; [6]): 0.125 µg/mL | Antibiotic MIC, Linezolid (A. baumannii [1]; [6]): 2 µg/mL | Antibiotic MIC, Vancomycin (A. baumannii [1]; [6]): 2 µg/mL | Antibiotic MIC, Erythromycin (A. baumannii [1]; [7]): 0 µg/mL | Antibiotic MIC, Linezolid (A. baumannii [1]; [7]): 0 µg/mL | Antibiotic MIC, Vancomycin (A. baumannii [1]; [7]): 0 µg/mL | Antibiotic MIC, Erythromycin (A. baumannii [1]; [8]): 0 µg/mL | Antibiotic MIC, Linezolid (A. baumannii [1]; [8]): 0 µg/mL | Antibiotic MIC, Vancomycin (A. baumannii [1]; [8]): 0 µg/mL | Antibiotic MIC, Erythromycin (A. baumannii [1]; [9]): 0 µg/mL | Antibiotic MIC, Linezolid (A. baumannii [1]; [9]): 0 µg/mL | Antibiotic MIC, Vancomycin (A. baumannii [1]; [9]): 0 µg/mL | Peptide MIC (E. coli; with Erythromycin […] (Conc./MIC 1)): 0 µg/mL | Peptide MIC (E. coli; with Linezolid […] (Conc./MIC 1)): 0 µg/mL | Peptide MIC (E. coli; with Vancomycin 1024 μg/ml (Conc./MIC 1)): 0 µg/mL | Peptide MIC during treatment with antibiotic (MDREC 1229; erythromycin 32 μg/ml (Conc./MIC 1/8)): 2 µg/mL | Peptide MIC during treatment with antibiotic (MDREC 1229; erythromycin 64 μg/ml (Conc./MIC 1/4)): 2 µg/mL | Peptide MIC during treatment with antibiotic (MDREC 1229; erythromycin […] (Conc./MIC 1)): 0 µg/mL | Peptide MIC during treatment with antibiotic (MDREC 1229; erythromycin […] (Conc./MIC 1/2)): 1 µg/mL | Peptide MIC during treatment with antibiotic (MDREC 1229; [10]): 2 µg/mL | Peptide MIC during treatment with antibiotic (MDREC 1229; [11]): 0 µg/mL | Peptide MIC during treatment with antibiotic (MDREC 1229; linezolid […] (Conc./MIC 1/2)): 1 µg/mL | Peptide MIC during treatment with antibiotic (MDREC 1229; linezolid […] (Conc./MIC 1/4)): 2 µg/mL | Peptide MIC during treatment with antibiotic (MDREC 1229; [12]): 2 µg/mL | Peptide MIC during treatment with antibiotic (MDREC 1229; [13]): 1 µg/mL | Peptide MIC during treatment with antibiotic (MDREC 1229; vancomycin […] (Conc./MIC 1/4)): 4 µg/mL | Peptide MIC during treatment with antibiotic (MDREC 1229; vancomycin […] (Conc./MIC 1/8)): 4 µg/mL | Peptide MIC during treatment with antibiotic (A. baumannii [2]; [14]): 4 µg/mL | Peptide MIC during treatment with antibiotic (A. baumannii [2]; [15]): 4 µg/mL | Peptide MIC during treatment with antibiotic (A. baumannii [2]; [16]): 2 µg/mL | Peptide MIC during treatment with antibiotic (A. baumannii [2]; [17]): 0 µg/mL | Peptide MIC during treatment with antibiotic (A. baumannii [2]; linezolid 32 μg/ml (Conc./MIC 1/8)): 4 µg/mL | Peptide MIC during treatment with antibiotic (A. baumannii [2]; linezolid 64 μg/ml (Conc./MIC 1/4)): 2 µg/mL | Peptide MIC during treatment with antibiotic (A. baumannii [2]; linezolid […] (Conc./MIC 1)): 0 µg/mL | Peptide MIC during treatment with antibiotic (A. baumannii [2]; linezolid […] (Conc./MIC 1/2)): 1 µg/mL | Peptide MIC during treatment with antibiotic (A. baumannii [2]; [12]): 0.25 µg/mL | Peptide MIC during treatment with antibiotic (A. baumannii [2]; [13]): 0 µg/mL | Peptide MIC during treatment with antibiotic (A. baumannii [2]; vancomycin […] (Conc./MIC 1/4)): 0.5 µg/mL | Peptide MIC during treatment with antibiotic (A. baumannii [2]; vancomycin […] (Conc./MIC 1/8)): 4 µg/mL | Peptide MIC during treatment with erythromycin (MDRAB 12035; [14]): 4 µg/mL | Peptide MIC during treatment with erythromycin (MDRAB 12035; [15]): 4 µg/mL | Peptide MIC during treatment with erythromycin (MDRAB 12035; [16]): 2 µg/mL | Peptide MIC during treatment with erythromycin (MDRAB 12035; [17]): 0 µg/mL | Peptide MIC during treatment with linezolid (MDRAB 12035; [10]): 4 µg/mL | Peptide MIC during treatment with linezolid (MDRAB 12035; [11]): 0 µg/mL | Peptide MIC during treatment with linezolid (MDRAB 12035; linezolid […] (Conc./MIC 1/2)): 1 µg/mL | Peptide MIC during treatment with linezolid (MDRAB 12035; linezolid […] (Conc./MIC 1/4)): 2 µg/mL | Peptide MIC during treatment with vancomycin (MDRAB 12035; [12]): 2 µg/mL | Peptide MIC during treatment with vancomycin (MDRAB 12035; [13]): 1 µg/mL | Peptide MIC during treatment with vancomycin (MDRAB 12035; vancomycin […] (Conc./MIC 1/4)): 2 µg/mL | Peptide MIC during treatment with vancomycin (MDRAB 12035; vancomycin […] (Conc./MIC 1/8)): 4 µg/mL
